This is an account of results in ChEMBL document CHEMBL4837206, “Synthesis and biological evaluation of novel isoxazole-piperazine hybrids as potential anti-cancer agents with inhibitory effect on liver cancer stem cells” (Eur J Med Chem, 2021).

Activity calls are given as the source filed them. The rule behind the calls is not given here.

One assay concerns MCF7. Briefly: Antiproliferative activity against human MCF7 cells assessed as reduction in cell viability measured after 72 hrs by SRB assay. The assay is classed as functional, cell-based. The following applies: MCF7, 72 h.
In assay [1] the test system is Huh-7. In words: Antiproliferative activity against human Huh-7 cells assessed as reduction in cell viability measured after 72 hrs by SRB assay. The assay is classed as functional, cell-based. The following applies: Huh-7, 72 h.
Assay [2] has as its system Mahlavu. Briefly: Antiproliferative activity against human Mahlavu cells assessed as reduction in cell viability measured after 72 hrs by SRB assay. It counts as functional, cell-based.
The subject of assay [3] is Huh-7. In words: Upregulation of NANOG mRNA expression in human Huh-7 cells at 10 uM incubated for 72 hrs by RT-qPCR analysis. It counts as functional, cell-based.
In assay [4] the test system is Huh-7. In words: Inhibition of cell stemness in human Huh-7 cells assessed as reduction in size of tumor spheres at 10 uM incubated for 72 hrs followed by incubation in sphere formation medium for 7 days by microscopic analysis. The assay is classed as functional, cell-based. The following applies: time 10.0 day.
The subject of assay [5] is Huh-7. Briefly: Inhibition of cell stemness in human Huh-7 cells assessed as reduction in size of tumor spheres at 10 uM incubated for 72 hrs followed by incubation in sphere formation medium for 14 days by microscopic analysis. It counts as functional, cell-based. The following applies: time 17.0 day.
The subject of assay [6] is Huh-7. In words: Upregulation of OCT4 mRNA expression in human Huh-7 cells at 10 uM incubated for 72 hrs by RT-qPCR analysis. The assay is classed as functional, cell-based.
For assay [7], the system named is Huh-7. Briefly: Inhibition of cell stemness in human Huh-7 cells assessed as CD133+/EpCAM+ expression at 10 uM measured after 72 hrs by flow cytometry analysis (reference value: 29.92%). The assay is classed as functional. Also on record: scale not given: the % may be the effect or the level left.
Assay [8] has as its system Huh-7. In words: Inhibition of cell stemness in human Huh-7 cells assessed as reduction in tumor spheres count at 10 uM incubated for 72 hrs followed by incubation in sphere formation medium for 7 days by microscopic analysis. The assay is classed as functional, cell-based. The settings on record: time 10.0 day.
In assay [9] the test system is Mahlavu. Briefly: Upregulation of OCT4 level in human Mahlavu cells at 10 uM measured after 72 hrs by flow cytometry analysis. The assay is classed as functional, cell-based.
The test system of assay [10] is Mahlavu. Briefly: Upregulation of OCT4 mRNA expression in human Mahlavu cells at 10 uM incubated for 72 hrs by RT-qPCR analysis. It counts as functional, cell-based.
A short description of assay [11]: Upregulation of NANOG mRNA expression in human Mahlavu cells at 10 uM incubated for 72 hrs by RT-qPCR analysis relative to control. It counts as functional.

Consider `Cc1cccc(COc2ccc(-c3cc(CN4CCN(Cc5ccc(C(F)(F)F)cc5)CC4)no3)cc2)c1`, for which the IC50 is 4000 nM in the assay on MCF7, 5000 nM in the assay on Huh-7 [1] and 2500 nM with Mahlavu [2].

`N#Cc1cccc(COc2ccc(-c3cc(CN4CCN(Cc5ccc(C(F)(F)F)cc5)CC4)no3)cc2)c1`: the IC50 stood at 800 nM with MCF7, 100 nM with Huh-7 [1] and 10600 nM with Mahlavu [2].

`N#Cc1ccccc1COc1ccc(-c2cc(CN3CCN(Cc4ccc(C(F)(F)F)cc4)CC3)no2)cc1`: the IC50 with MCF7 came to 4000 nM; in the assay on Huh-7 [1], 5000 nM; in the assay on Mahlavu [2], 3500 nM.

Turning to `COc1cc(COc2ccc(-c3cc(CN4CCN(Cc5ccc(C(F)(F)F)cc5)CC4)no3)cc2)cc(OC)c1`, the IC50 amounted to 100 nM in the assay with MCF7, 1500 nM in the assay on Huh-7 [1] and 4300 nM in the assay with Mahlavu [2].

Take `N#Cc1cccc(COc2ccc(-c3cc(CN4CCN(C(=O)C5CC5)CC4)no3)cc2)c1`: the figures for the IC50 in the assay on MCF7, in the assay with Huh-7 [1] and in the assay on Mahlavu [2] were 7600 nM, 2800 nM and 4400 nM, respectively.

As to `N#Cc1ccc(COc2ccc(-c3cc(CN4CCN(Cc5ccc(C(F)(F)F)cc5)CC4)no3)cc2)cc1`, the IC50 was 100 nM in the assay with MCF7, 1000 nM with Huh-7 [1] and 4300 nM in the assay with Mahlavu [2].

Regarding `N#Cc1cccc(COc2ccc(-c3cc(CN4CCN(C(=O)c5ccco5)CC4)no3)cc2)c1`, the IC50 came to 1900 nM in the assay on MCF7, 2000 nM with Huh-7 [1] and 2200 nM in the assay with Mahlavu [2].

On to `Cc1ccc(COc2ccc(-c3cc(CN4CCN(Cc5ccc(C(F)(F)F)cc5)CC4)no3)cc2)cc1`, for which the IC50 in the assay on MCF7 was found to be 1200 nM; with Huh-7 [1], 1500 nM; in the assay with Mahlavu [2] it was 7500 nM.

For the molecule `COc1ccccc1COc1ccc(-c2cc(CN3CCN(Cc4ccc(C(F)(F)F)cc4)CC3)no2)cc1`, the IC50 in the assay with MCF7 was determined as 300 nM; with Huh-7 [1], 900 nM; in the assay with Mahlavu [2] it was 3900 nM.

As to `N#Cc1cccc(COc2ccc(-c3cc(CN4CCN(Cc5ccc(F)cc5)CC4)no3)cc2)c1`, the IC50 was found to be 1800 nM in the assay with MCF7, 1600 nM in the assay on Huh-7 [1] and 1500 nM with Mahlavu [2].

Regarding `N#Cc1cccc(COc2ccc(-c3cc(CN4CCN(Cc5ccc(C(F)(F)F)cc5)CC4)no3)c(F)c2)c1`, the results for the IC50 with MCF7, in the assay on Huh-7 [1] and in the assay on Mahlavu [2] were 1200 nM, 400 nM and 400 nM, respectively.

For `N#Cc1cccc(COc2ccc(-c3cc(CN4CCN(CC5CC5)CC4)no3)cc2)c1`, the IC50 in the assay on MCF7 turned out to be 3500 nM; with Huh-7 [1] it was 2900 nM; in the assay with Mahlavu [2], 3200 nM.

For `FC(F)(F)c1ccc(CN2CCN(Cc3cc(-c4ccc(OCc5ccccc5Cl)cc4)on3)CC2)cc1`, the figures for the IC50 in the assay on MCF7, in the assay with Huh-7 [1] and in the assay on Mahlavu [2] were 2800 nM, 1000 nM and 3200 nM, respectively.

Take `N#Cc1cccc(COc2ccc(-c3cc(CN4CCN(c5ccc(C(F)(F)F)cc5)CC4)no3)cc2)c1`: the values for the IC50 in the assay with MCF7, in the assay on Huh-7 [1] and with Mahlavu [2] were 2000 nM, 2200 nM and 2700 nM, respectively.

In the case of `N#Cc1cccc(COc2ccc(-c3cc(CNC4CCN(Cc5ccccc5)CC4)no3)cc2)c1`, the IC50 was found to be 2500 nM in the assay with MCF7, 2500 nM in the assay on Huh-7 [1] and 2100 nM in the assay on Mahlavu [2].

As to `Fc1ccc(COc2ccc(-c3cc(CN4CCN(Cc5ccc(C(F)(F)F)cc5)CC4)no3)cc2)cc1`, the half-maximal inhibitory concentration (IC50) was 7900 nM with MCF7, 2000 nM in the assay with Huh-7 [1] and 3100 nM with Mahlavu [2].

`Cc1cc(OCc2cccc(C#N)c2)ccc1-c1cc(CN2CCN(Cc3ccc(C(F)(F)F)cc3)CC2)no1`: the figures for the IC50 with MCF7, in the assay on Huh-7 [1] and in the assay on Mahlavu [2] were 400 nM, 1500 nM and 500 nM, respectively.

For the molecule `FC(F)(F)c1ccc(CN2CCN(Cc3cc(-c4ccc(OCc5cccc(Cl)c5)cc4)on3)CC2)cc1`, the IC50 was 1400 nM in the assay with MCF7, 200 nM with Huh-7 [1] and 4100 nM in the assay on Mahlavu [2].

For `N#Cc1cccc(COc2ccc(-c3cc(CN4CCN(C(=O)c5ccco5)CC4)no3)cc2F)c1`, the IC50 in the assay with MCF7 is 1500 nM; in the assay on Huh-7 [1] it was 8100 nM; with Mahlavu [2] it was 3600 nM.

As for `N#Cc1cccc(COc2ccc(-c3cc(CN4CCN(c5ccc(C(F)(F)F)cn5)CC4)no3)cc2)c1`, the IC50 in the assay on MCF7 came out at 1400 nM; with Huh-7 [1] it was 1700 nM; in the assay with Mahlavu [2] it was 1300 nM.

In the case of `CNC(=O)c1cc(Oc2ccc(NC(=O)Nc3ccc(Cl)c(C(F)(F)F)c3)cc2)ccn1` [SORAFENIB], the outcome in the assay on Huh-7 [3], in the assay on Huh-7 [6], with Mahlavu [9] and in the assay with Mahlavu [10] was Active. Also, the inhibition result in the assay with Huh-7 [4] is “Active”. The inhibition result with Huh-7 [5] and in the assay with Huh-7 [8] was “inactive” in each case. The Activity with Huh-7 [7] came out at 36.16%. The “fold change (FC)” value in assay [11] came out at 10.

`N#Cc1cccc(COc2ccc(-c3cc(CN4CCN(CC5CCCO5)CC4)no3)cc2)c1` (stereo not given): the IC50 in the assay on MCF7 turned out to be 8400 nM; with Huh-7 [1] it was 4200 nM; in the assay with Mahlavu [2], 4800 nM.

Consider `N#Cc1cccc(COc2ccc(-c3cc(CN4CCN(C(=O)C5CCCO5)CC4)no3)cc2)c1` (stereo not given), for which the 50% inhibitory concentration (IC50) with MCF7 was 3800 nM; with Huh-7 [1], 2200 nM; in the assay on Mahlavu [2], 4100 nM.

As to `N#Cc1cccc(COc2ccc(-c3cc(CN4CCN(c5ccc(F)cc5)CC4)no3)cc2)c1`, the IC50 worked out at 2400 nM in the assay on MCF7, 1500 nM in the assay on Huh-7 [1] and 2200 nM in the assay with Mahlavu [2].

For `Cc1cc(C)cc(COc2ccc(-c3cc(CN4CCN(Cc5ccc(C(F)(F)F)cc5)CC4)no3)cc2)c1`, the results for the IC50 in the assay on MCF7, with Huh-7 [1] and with Mahlavu [2] were 1600 nM, 600 nM and 6000 nM, respectively.

`COc1cc(COc2ccc(-c3cc(CN4CCN(Cc5ccc(C(F)(F)F)cc5)CC4)no3)cc2)cc(OC)c1OC`: the figures for the IC50 in the assay with MCF7, with Huh-7 [1] and with Mahlavu [2] were 1800 nM, 500 nM and 5800 nM, respectively.

For `N#Cc1cccc(COc2ccc(-c3cc(CN4CCN(Cc5cccc(F)c5)CC4)no3)cc2)c1`, the results for the IC50 in the assay with MCF7, in the assay on Huh-7 [1] and with Mahlavu [2] were 2400 nM, 2700 nM and 2600 nM, respectively.

As to `Fc1ccccc1COc1ccc(-c2cc(CN3CCN(Cc4ccc(C(F)(F)F)cc4)CC3)no2)cc1`, the IC50 worked out at 3000 nM in the assay with MCF7, 1500 nM in the assay on Huh-7 [1] and 3100 nM in the assay with Mahlavu [2].

Take `CC(C)(C)OC(=O)N1CCC(NCc2cc(-c3ccc(OCc4cccc(C#N)c4)cc3)on2)CC1`: the IC50 is 2800 nM in the assay on MCF7, 1500 nM in the assay on Huh-7 [1] and 3000 nM with Mahlavu [2].

Regarding `COc1ccc(COc2ccc(-c3cc(CN4CCN(Cc5ccc(C(F)(F)F)cc5)CC4)no3)cc2)cc1`, the IC50 with MCF7 stood at 1300 nM; with Huh-7 [1] it was 3200 nM; in the assay with Mahlavu [2], 4900 nM.

With `Fc1cccc(COc2ccc(-c3cc(CN4CCN(Cc5ccc(C(F)(F)F)cc5)CC4)no3)cc2)c1`, the IC50 with MCF7 came out at 2500 nM; in the assay on Huh-7 [1] it was 1300 nM; in the assay with Mahlavu [2] it was 2900 nM.

`COc1cccc(COc2ccc(-c3cc(CN4CCN(Cc5ccc(C(F)(F)F)cc5)CC4)no3)cc2)c1`: the IC50 with MCF7 was found to be 2000 nM; in the assay with Huh-7 [1] it was 800 nM; in the assay on Mahlavu [2], 1400 nM.

For `N#Cc1cccc(COc2ccc(-c3cc(CN4CCN(Cc5ccccc5F)CC4)no3)cc2)c1`, the results for the IC50 with MCF7, in the assay with Huh-7 [1] and with Mahlavu [2] were 1400 nM, 2400 nM and 2300 nM, respectively.

Consider `CC(C)(C)OC(=O)N1CCN(Cc2cc(-c3ccc(OCc4cccc(C#N)c4)cc3)on2)CC1`, for which the IC50 with MCF7 stood at 3800 nM; in the assay on Huh-7 [1], 6100 nM; in the assay on Mahlavu [2], 5600 nM.

As to `FC(F)(F)c1ccc(CN2CCN(Cc3cc(-c4ccc(OCc5ccc(Cl)cc5)cc4)on3)CC2)cc1`, the IC50 in the assay on MCF7 came to 6700 nM; in the assay with Huh-7 [1], 4000 nM; in the assay on Mahlavu [2], 3700 nM.

For the molecule `Cc1cc(-c2cc(CN3CCN(Cc4ccc(C(F)(F)F)cc4)CC3)no2)ccc1OCc1cccc(C#N)c1`, the IC50 with MCF7 is 700 nM; with Huh-7 [1], 600 nM; with Mahlavu [2] it was 450 nM.

As for `Cc1ccccc1COc1ccc(-c2cc(CN3CCN(Cc4ccc(C(F)(F)F)cc4)CC3)no2)cc1`, the figures for the IC50 with MCF7, in the assay with Huh-7 [1] and in the assay on Mahlavu [2] were 3700 nM, 1200 nM and 6800 nM, respectively.

Turning to `N#Cc1cccc(COc2ccc(-c3cc(CNC4CCN(Cc5ccccc5)CC4)no3)cc2F)c1`, the IC50 amounted to 2700 nM in the assay with MCF7, 2300 nM with Huh-7 [1] and 2700 nM in the assay with Mahlavu [2].
